According to PubChem BioAssay AID1963443 (Molecular Pharmacology Branch, DTP, NCI, 2024):
pIC50: −log10 of the molar value. Several values for one entry are separate records, joined by “and”; a condition that tells them apart may be missing. Identical values can stand only once.

Tested on: MDA-MB-231 complex spheroids, growth inhibition
Assay: Anticancer human tumor MDA-MB-231 cell line growth inhibition [Asc];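 further: spheroids exposed to compounds for 7 days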
Conditions: for viability, T/C: stronger effect = lower value; active means viability on the fitted dose curve at most 10% of control; inactive means the rest
Outline: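 Stromal components (HUVEC and hMSC) are co-assembled with the cancer cells into multicellular spheroids. Drugs are then added singly or paired, at concentrations falling by half-log increments from a clinically achievable maximum, capped at 10 microM without known Cmax.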

[1] = curve of first compound, second compound 0.1 µM
[2] = curve of first compound, second compound 0.316 µM
[3] = curve of first compound, second compound 1 µM
[4] = curve of first compound, second compound 3.16 µM
[5] = curve of first compound, second compound 10 µM
[6] = second compound 0.1 µM, first compound 0.0316 µM
[7] = second compound 0.1 µM, first compound 0.1 µM
[8] = second compound 0.1 µM, first compound 0.316 µM
[9] = second compound 0.1 µM, first compound 1 µM
[10] = second compound 0.1 µM, first compound 3.16 µM
[11] = second compound 0.1 µM, first compound 10 µM
[12] = second compound 0.316 µM, first compound 0.0316 µM
[13] = second compound 0.316 µM, first compound 0.1 µM
[14] = second compound 0.316 µM, first compound 0.316 µM
[15] = second compound 0.316 µM, first compound 1 µM
[16] = second compound 0.316 µM, first compound 3.16 µM
[17] = second compound 0.316 µM, first compound 10 µM
[18] = second compound 1 µM, first compound 0.0316 µM
[19] = second compound 1 µM, first compound 0.1 µM
[20] = second compound 1 µM, first compound 0.316 µM
[21] = second compound 1 µM, first compound 1 µM
[22] = second compound 1 µM, first compound 3.16 µM
[23] = second compound 1 µM, first compound 10 µM
[24] = second compound 3.16 µM, first compound 0.0316 µM
[25] = second compound 3.16 µM, first compound 0.1 µM
[26] = second compound 3.16 µM, first compound 0.316 µM
[27] = second compound 3.16 µM, first compound 1 µM
[28] = second compound 3.16 µM, first compound 3.16 µM
[29] = second compound 3.16 µM, first compound 10 µM
[30] = second compound 10 µM, first compound 0.0316 µM
[31] = second compound 10 µM, first compound 0.1 µM
[32] = second compound 10 µM, first compound 0.316 µM
[33] = second compound 10 µM, first compound 1 µM
[34] = second compound 10 µM, first compound 3.16 µM
[35] = second compound 10 µM, first compound 10 µM

Cc1c(S(C)(=O)=O)c(-c2cc(F)cc(N3CCN(c4ccc(NS(=O)(=O)c5ccc(NC(CCN6CCC(C(=O)OCCCP(=O)(O)O)CC6)CSc6ccccc6)c(S(=O)(=O)C(F)(F)F)c5)cc4)CC3)c2)c(-c2ccc(Cl)cc2)n1C(C)C (stereo unspecified)
< 5.00: pIC50 (compound alone, run of 10/11/2022)
inactive: viability, T/C (compound 0.1 µM) 96.4% [middle of 14 runs] | viability, T/C (compound 0.316 µM) 105% [middle of 14 runs] | viability, T/C (compound 1 µM) 98.3% [middle of 14 runs] | viability, T/C (compound 3.16 µM) 98.5% [middle of 14 runs] | viability, T/C (compound 10 µM) 95% [middle of 14 runs]

C=C(F)C(=O)N1CCN(c2nc(OCC3CCCN3C)nc3c2CCN(c2cccc4cccc(Cl)c24)C3)CC1CC#N (stereo unspecified) + CCN1C(C(=O)NC23CCC(C(=O)O)(CC2)CC3)C(c2cccc(Cl)c2F)C2(C(=O)Nc3cc(Cl)ccc32)C12CCCCC2
5.63: pIC50 (curve of first compound, second compound 3 µM)
active: viability, T/C (second compound 0.03 µM, first compound 10 µM) 0.47% | viability, T/C (second compound 0.0949 µM, first compound 10 µM) 0.33% | viability, T/C (second compound 0.3 µM, first compound 10 µM) 0.55% | viability, T/C (second compound 0.949 µM, first compound 10 µM) 1.4% | viability, T/C (second compound 3 µM, first compound 10 µM) 0.24%
inactive: viability, T/C (second compound 0.03 µM, first compound 0.0316 µM) 102% | viability, T/C (second compound 0.03 µM, first compound 0.1 µM) 101% | viability, T/C (second compound 0.03 µM, first compound 0.316 µM) 88.1% | viability, T/C (second compound 0.03 µM, first compound 1 µM) 90.2% | viability, T/C (second compound 0.03 µM, first compound 3.16 µM) 51.2% | viability, T/C (second compound 0.0949 µM, first compound 0.0316 µM) 100% | viability, T/C (second compound 0.0949 µM, first compound 0.1 µM) 108% | viability, T/C (second compound 0.0949 µM, first compound 0.316 µM) 97.9% | viability, T/C (second compound 0.0949 µM, first compound 1 µM) 97.1% | viability, T/C (second compound 0.0949 µM, first compound 3.16 µM) 50.7% | viability, T/C (second compound 0.3 µM, first compound 0.0316 µM) 112% | viability, T/C (second compound 0.3 µM, first compound 0.1 µM) 107% | viability, T/C (second compound 0.3 µM, first compound 0.316 µM) 110% | viability, T/C (second compound 0.3 µM, first compound 1 µM) 105% | viability, T/C (second compound 0.3 µM, first compound 3.16 µM) 48.9% | viability, T/C (second compound 0.949 µM, first compound 0.0316 µM) 112% | viability, T/C (second compound 0.949 µM, first compound 0.1 µM) 116% | viability, T/C (second compound 0.949 µM, first compound 0.316 µM) 114% | viability, T/C (second compound 0.949 µM, first compound 1 µM) 107% | viability, T/C (second compound 0.949 µM, first compound 3.16 µM) 57.3% | viability, T/C (second compound 3 µM, first compound 0.0316 µM) 94.3% | viability, T/C (second compound 3 µM, first compound 0.1 µM) 99.5% | viability, T/C (second compound 3 µM, first compound 0.316 µM) 97.6% | viability, T/C (second compound 3 µM, first compound 1 µM) 86.9% | viability, T/C (second compound 3 µM, first compound 3.16 µM) 37.7%
5.49: pIC50 (curve of first compound, second compound 0.0949 µM)
5.51: pIC50 (curve of first compound, second compound 0.3 µM)
5.44: pIC50 (curve of first compound, second compound 0.949 µM)
5.48: pIC50 (curve of first compound, second compound 0.03 µM)

Cc1nc(N2CCC3(CC2)COC(C)C3N)c(CO)nc1Sc1ccnc(N)c1Cl (stereo unspecified)
active: viability, T/C (compound 0.949 µM) 3.21% and 2.3% and 2.69% | viability, T/C (compound 3 µM) 0.89% and 1.08% and 0.76%
inactive: viability, T/C (compound 0.00949 µM) 122% and 98.3% and 98% | viability, T/C (compound 0.03 µM) 117% and 93.5% and 101% | viability, T/C (compound 0.0949 µM) 111% and 94.2% and 94.4% | viability, T/C (compound 0.3 µM) 63.3% and 47.9% and 61.2%
6.41 and 6.55 and 6.43: pIC50 (curve of compound)

C=CC(=O)N1CCN(c2nc(=O)n(-c3c(C)ccnc3C(C)C)c3nc(-c4c(O)cccc4F)c(F)cc23)C(C)C1 (stereo unspecified) + Cc1c(S(C)(=O)=O)c(-c2cc(F)cc(N3CCN(c4ccc(NS(=O)(=O)c5ccc(NC(CCN6CCC(C(=O)OCCCP(=O)(O)O)CC6)CSc6ccccc6)c(S(=O)(=O)C(F)(F)F)c5)cc4)CC3)c2)c(-c2ccc(Cl)cc2)n1C(C)C
< 5.00: pIC50 [1] | pIC50 [2] | pIC50 [3] | pIC50 [4] | pIC50 [5]
inactive: viability, T/C [6] 99.8% | viability, T/C [7] 94.4% | viability, T/C [8] 96.7% | viability, T/C [9] 102% | viability, T/C [10] 105% | viability, T/C [11] 98.4% | viability, T/C [12] 106% | viability, T/C [13] 112% | viability, T/C [14] 111% | viability, T/C [15] 117% | viability, T/C [16] 116% | viability, T/C [17] 116% | viability, T/C [18] 108% | viability, T/C [19] 106% | viability, T/C [20] 100% | viability, T/C [21] 111% | viability, T/C [22] 109% | viability, T/C [23] 96.6% | viability, T/C [24] 104% | viability, T/C [25] 96.8% | viability, T/C [26] 89.1% | viability, T/C [27] 97.5% | viability, T/C [28] 105% | viability, T/C [29] 91.2% | viability, T/C [30] 96.6% | viability, T/C [31] 93.7% | viability, T/C [32] 93.3% | viability, T/C [33] 96.6% | viability, T/C [34] 97.1% | viability, T/C [35] 83.4%

O=C(c1cc(Cc2n[nH]c(=O)c3ccccc23)ccc1F)N1CCN(C(=O)C2CC2)CC1
< 5.00 and 5.50: pIC50 (curve of compound)
inactive: viability, T/C (compound 0.0316 µM) 95.2% and 99.3% and 106% | viability, T/C (compound 0.1 µM) 97.2% and 86.9% and 110% | viability, T/C (compound 0.316 µM) 92.7% and 75.9% and 84.1% | viability, T/C (compound 1 µM) 90.8% and 88.9% and 83.6% | viability, T/C (compound 3.16 µM) 87% and 88.3% and 49%

NC(=O)C(=Cn1cnc(-c2cc(C(F)(F)F)cc(C(F)(F)F)c2)n1)c1cncnc1
inactive: viability, T/C (compound 0.000949 µM) 95.7% and 87.8% and 73.5% | viability, T/C (compound 0.003 µM) 92.4% and 95.1% and 81.3% | viability, T/C (compound 0.00949 µM) 84.7% and 87.1% and 84.5% | viability, T/C (compound 0.03 µM) 57.8% and 56.5% and 60.4% | viability, T/C (compound 0.0949 µM) 50.5% and 47% and 48.1% | viability, T/C (compound 0.3 µM) 14.4% and 21.2% and 21.8%
7.14 and 7.21 and 7.13: pIC50 (curve of compound)

O=C(c1cc(Cc2n[nH]c(=O)c3ccccc23)ccc1F)N1CCN(C(=O)C2CC2)CC1 + Cc1c(S(C)(=O)=O)c(-c2cc(F)cc(N3CCN(c4ccc(NS(=O)(=O)c5ccc(NC(CCN6CCC(C(=O)OCCCP(=O)(O)O)CC6)CSc6ccccc6)c(S(=O)(=O)C(F)(F)F)c5)cc4)CC3)c2)c(-c2ccc(Cl)cc2)n1C(C)C
inactive: viability, T/C [6] 96.8% | viability, T/C [7] 98.9% | viability, T/C [8] 94.9% | viability, T/C [9] 85.7% | viability, T/C [10] 78.3% | viability, T/C [11] 68.9% | viability, T/C [12] 91.7% | viability, T/C [13] 96.2% | viability, T/C [14] 100% | viability, T/C [15] 87.2% | viability, T/C [16] 87% | viability, T/C [17] 65.6% | viability, T/C [18] 97.7% | viability, T/C [19] 95.3% | viability, T/C [20] 88.8% | viability, T/C [21] 85% | viability, T/C [22] 77.5% | viability, T/C [23] 54.5% | viability, T/C [24] 86.8% | viability, T/C [25] 93.8% | viability, T/C [26] 89.3% | viability, T/C [27] 83.9% | viability, T/C [28] 72.2% | viability, T/C [29] 42.3% | viability, T/C [30] 102% | viability, T/C [31] 101% | viability, T/C [32] 96.8% | viability, T/C [33] 91% | viability, T/C [34] 75.7% | viability, T/C [35] 36.9%
< 5.00: pIC50 [1] | pIC50 [2] | pIC50 [3]
5.13: pIC50 [4]
5.17: pIC50 [5]
